We go through one compound from article PMC4377999, “Kalkitoxin Inhibits Angiogenesis, Disrupts Cellular Hypoxic Signaling, and Blocks Mitochondrial Electron Transport in Tumor Cells” (Marine Drugs, 2015).

For the assay, the target named is T1, mitochondrial electron transport chain complex I (NADH-ubiquinone oxidoreductase) (Homo sapiens, UniProt O75251+O75306+P03886).
T1 construct: gene NDUFS2; native multi-subunit complex in digitonin-permeabilized T47D cells
As to the kind of experiment: oxygen consumption (Clark-type electrode) in permeabilized T47D cells with malate/pyruvate, succinate bypass; […]. It is filed as cell-based.

With `C=C[C@@H]1CSC(C[C@@H](C)[C@@H](C)C[C@H](C)CCN(C)C(=O)[C@H](C)CC)=N1` [kalkitoxin], the “oxygen consumption (Clark-type electrode) in permeabilized T47D cells with malat” value is given as “kalkitoxin potently suppresses mitochondrial respiration in tumor cells by selectively inhibiting ETC complex I”.
